The subject of this data set is male Sprague-Dawley rats. Type of data set: in vivo. Particulars: 200 mg/kg i.p., individual animals 101-110. The protocol:
Dosing was on the day designated as ‘day 1’ when the growing rats were each approximately 250 g in mass. Isoniazid (from Sigma, France) was dissolved in physiological saline and dosed by intraperitoneal injection at either 200 mg/kg or at 400 mg/kg; ten animals (nos. 101-110) received the low dose and ten animals (nos. 201-210) received the high dose. Ten control animals (nos. 1-10) received an intraperitoneal injection of saline.
It was intended that post-dose blood samples would be taken immediately before euthanasia with euthanasia being immediately followed by sampling for histopathology. As in Example 1, the intention was that five of each group of ten rats would be euthanased by means of CO2 at one day after dosing thereby providing early blood and histopathology samples; the remainder were to be euthanased by the same technique at seven days after dosing thereby providing late blood and histopathology samples. It was planned that the early-euthanased rats would be numbers 6-10, 106-110 and 206-210 whilst the late-euthanased rats would be numbers 1-5, 101-105 and 201-205. […] The urine samples were deep-frozen pending NMR analysis. […]

`NNC(=O)c1ccncc1` [isoniazid]: the “Premature Death?” value is reported as “No”.

For the origin of these results see patent publication US8577617B2, “Metabolic phenotyping” (priority 2002, dated 2013).
